Test system: A549-luc cells
Assay: siRNA delivery, luciferase gene silencing
Format: cell-based, human
Settings: 10 nM siRNA, 48 h
Experimental: The A549-luc cells that stably express the reporter gene luciferase GL3 (1-2 x 10^10 RLU/mg protein) were established by transfecting human lung carcinoma A549 cells (CCL-185; ATCC) with pGL3-Luc plasmid (Clontech, Mountain View, CA, USA) using jetPEI™ as delivery system (Polyplus-Transfection, Illkirch, France). Cells were grown in RPMI 1640 medium (Eurobio, Les Ulis, France) supplemented with 10% Fetal Bovine Serum (Eurobio, Les Ulis, France), 1% antibiotic solution (pencillin-streptomycin, Gibco-invitrogen) and maintained under 0.8 µg/mL G418 selection (Promega, Madison, WI, USA) at 37 °C in a 5% CO2 humidified atmosphere. […]
Luciferase gene expression was determined 48 h after delivery with a Luciferase Assay System (Promega, Charbonnières, France) according to manufacturer's instructions. The luminescence was quantified using 2 µL of cell lysate with a Centro LB luminometer (Berthold, Thoiry, France). Protein concentration in cell lysate was measured by using a BCA assay kit (Interchim, Montluçon, France), according to manufacturer's instructions. After expressing the luciferase activity as relative light units integrated over 10 s per mg of cell protein (RLU/mg), the luciferase gene silencing was calculated relative to the luciferase activity of non-transfected A549-luc cells.

Substance | specific inhibition (40 µg/ml, polymerized micelles of the surfactant) [%] | maximum inhibition (polymerized micelles of the surfactant at increasing concentrations) [%]
C25diynetrioxa-L-Histidine [compound 1] | 80 | 
C25diynetrioxaamine [compound 2] |  | 25

Source: EP3225257A1, “AMPHIPHILIC MONOMERS BASED NANOVECTORS AND THEIR USE FOR SIRNA DELIVERY” (Université de Strasbourg, priority 2016, dated 2017)
